Assay results as given in ChEMBL document CHEMBL5604062, “ASAP - ZIKV NS2B-NS3 protease fluorescence dose response” (2024).
“And” between values parts separate entries of the source, which are not always exact repeats. Identical values can stand only once.

Each compound was assayed against Nonstructural protein 3 (Zika virus, UniProt A0A024AXB9) (assay: Functional biochemical assay to identify treatments for viral infectious disease that targets Zika NS2B-NS3 protease. Utilizing a direct enzyme activity measurement method, reading the fluorescence intensity is used to characterize the relative potency of inhibitors as IC50.).
Sequence of Nonstructural protein 3 (A0A024AXB9 whole entry): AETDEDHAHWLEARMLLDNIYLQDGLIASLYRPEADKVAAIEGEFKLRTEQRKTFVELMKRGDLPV
Parameters: species or system PRVABC59
For c1ccc2c(CN[C@H]3CCc4c([nH]c5ccccc45)C3)n[nH]c2c1, the IC50 was greater than 99.5 µM. CC(C)(CO)CN1CC[C@H](c2c[nH]c3ccccc23)C1 was tested, and the IC50 was greater than 99.5 µM. With CC[C@H](CO)NC(=O)Cn1ccnc(N2CC[C@H](CO)C2)c1=O the IC50 was greater than 99.5 µM. COc1cc(NC(=O)OCc2ccccc2)cc(C(=O)Nc2cccc(CN)c2)c1OC gave an IC50 greater than 99.5 µM. With COc1ccc(NS(=O)(=O)c2ccc(Cl)cc2C(=O)O)cc1OC1CCCC1 the IC50 was greater than 99.5 µM. O=C(N[C@@H](C(=O)Nc1ncc([C@H]2CCCN2)s1)c1ccc(OCc2ccccc2)cc1)OCc1ccccc1 gave an IC50 greater than 99.5 µM. NCc1cc(NC(=O)c2cc(Cl)cc(NC(=O)OCc3ccccc3)c2)cc(-c2ccc3c(c2)C[C@H](C(=O)O)CO3)c1 showed an IC50 greater than 99.5 µM. NCc1cccc(NC(=O)[C@@H](NC(=O)OCc2ccccc2)c2ccc(OCc3cnccn3)cc2)c1 showed an IC50 greater than 99.5 µM. With CCCc1sc(C(=O)Nc2cccc(-c3nnn[nH]3)c2)cc1CC the IC50 was greater than 99.5 µM. With C#Cc1ccnc(NC(=O)c2cc(C3CC3)n(C)c2C)c1 the IC50 was greater than 25 µM. O=C(Nc1cc(Cl)cc(C(=O)NCCc2nnn[nH]2)c1)OCc1ccccc1 gave an IC50 greater than 99.5 µM. NCc1cccc([C@H](CCCO)Nc2cc(Cl)cc(NC(=O)OCc3ccccc3)c2)c1 showed an IC50 of 27.4 µM. For [O-][S@@+](Cc1ncccn1)c1ncccc1Br, the IC50 was greater than 99.5 µM. NCc1cccc(NC(=O)c2cc(NC(=O)OCc3ccccc3)ccc2C(F)(F)F)c1 gave an IC50 greater than 99.5 µM. In the case of CS(=O)(=O)NCc1ccc(CNC(=O)[C@@H](NC(=O)OCc2ccccc2)c2ccc(OCc3ccccc3)cc2)cc1, the IC50 is reported as greater than 99.5 µM. For O=C(Nc1ccc2c(c1)CNC2)c1nc(-c2ccccc2)cs1, the IC50 was greater than 25 µM. Cc1c(CN)cccc1NC(=O)c1cc(Cl)cc(NC(=O)OCc2ccccc2)c1 showed an IC50 of 44.7 µM. For COc1cn(-c2cccc(C(F)(F)F)c2)nc1C(=O)Nc1cccc(CN)c1, the IC50 was greater than 99.5 µM. CCn1c(=O)c(N2CC[C@H](CO)C2)nc2cc(C(=O)NS(C)(=O)=O)ccc21 gave an IC50 greater than 99.5 µM. NCc1cccc(NC(=O)[C@@H](NC(=O)OCc2ccccc2)C2CCN(Cc3cccnc3)CC2)c1 was tested, and the IC50 was greater than 99.5 µM. For CCn1c(=O)c(N2CC[C@@H](Cc3ccncc3)C2)nc2ccccc21, the IC50 was greater than 99.5 µM. Work on O=C1CCc2c(cc(Cl)cc2-c2ccc3[nH]c(C(=O)O)cc3c2)N1 yielded an IC50 greater than 99.5 µM. With CC(C)N1CCc2nc(NC(=O)c3cc(Cl)cc(NC(=O)OCc4ccccc4)c3)sc2C1 the IC50 was greater than 99.5 µM. Work on Cc1nccn1-c1ccc(Cl)cc1C(=O)Nc1cccc(CN)c1 yielded an IC50 greater than 99.5 µM. In the case of C=CC[C@H]1NCc2cc(NC(=O)c3cc(F)cc4[nH]ncc34)ccc21, the IC50 is reported as 0.289 µM. CNC(=O)c1cc(Cl)c(OC)cc1NS(=O)(=O)c1ccc(Oc2ccccc2Cl)cc1 gave an IC50 of 53.4 µM. With Cc1cc(C)c(C(=O)N2C[C@H]3CN(C)CC[C@@]3(CO)C2)cc1C=O the IC50 was greater than 99.5 µM. In the case of O=C(Nc1cc(Cl)cc(C(=O)Nc2cccc(C3CCNCC3)c2)c1)OCc1ccccc1, the IC50 is reported as 13.2 µM and 12.5 µM. In the case of O=S(=O)(Nc1ccc(Cl)cc1)c1ccc(Oc2ccccc2Cl)cc1, the IC50 is reported as greater than 99.5 µM. Cc1c(C(=O)Nc2ccc(CN)cc2)cc(C2CC2)n1C showed an IC50 greater than 99.5 µM. In the case of O=C(O)c1cc(Cl)ccc1NS(=O)(=O)c1ccc(-c2cc[nH]n2)cc1, the IC50 is reported as greater than 99.5 µM. Compound NC[C@@H]1CN(c2cc(-c3ccc(N)nc3)cc3c2COB3O)C(=O)O1 has an IC50 greater than 99.5 µM. CNC(=O)[C@H](Nc1cccc(CN)c1)c1cc(Cl)cc(NC(=O)OCc2ccccc2)c1 was tested, and the IC50 was 0.612 µM. O=C(O)c1cc(Cl)ccc1S(=O)(=O)N[C@H]1CC[C@@H](Oc2ccccc2)CC1 showed an IC50 greater than 99.5 µM. OC[C@H]1CCN(c2cncc(N3CCOCC3)n2)C1 showed an IC50 greater than 99.5 µM. For CC(C)(C)OC(=O)NCc1cccc(NC(=O)[C@@H](NC(=O)OCc2ccccc2)c2ccc(O)cc2)c1, the IC50 was greater than 99.5 µM. Compound Cc1c(C(=O)Nc2cc(C(=O)N3CCn4nccc43)ccn2)cc(C2CC2)n1C has an IC50 greater than 25 µM. CNC(=O)[C@H](Nc1cccc(C(=O)O)c1)c1cc(Cl)cc2[nH]ncc12 showed an IC50 greater than 99.5 µM. For Clc1cc(CCc2cccc(-c3nn[nH]n3)c2)c2cn[nH]c2c1, the IC50 was greater than 99.5 µM. O=C(Nc1ccc2c(c1)CNC2)c1cc(Cl)cc2c1NCCC2 was tested, and the IC50 was 0.151 µM. NC(=O)[C@H]1CCCN(Cc2c[nH]c3ccccc23)C1 showed an IC50 greater than 99.5 µM. CC[C@H](Cc1nnn[nH]1)c1ccc(NC(=O)c2cc(Cl)cc3[nH]ncc23)cc1 showed an IC50 greater than 99.5 µM. Cc1c(C(=O)Nc2cc(-c3cccnc3)ccn2)c2ccccc2n1C gave an IC50 greater than 25 µM. Work on Cc1ccc(NC(=O)c2cc(Cl)cc3[nH]ncc23)cc1CN yielded an IC50 of 1.39 µM. For Cc1ccc(CN)cc1-c1cccc([C@H](NC(=O)OCc2ccccc2)C(=O)Nc2cccc(CN)c2)c1, the IC50 was 18.2 µM. In the case of O=C(Nc1cc2c(c(-c3ccnnc3)c1)CNC2)c1cc(Cl)cc2[nH]ncc12, the IC50 is reported as 0.062 µM and 0.035 µM. NCc1cccc(NC(=O)c2cc3c(F)cc(F)c(F)c3[nH]2)c1 showed an IC50 of 42.4 µM. Compound NCc1cccc(NC(=O)c2cc(Cl)cc(F)c2F)c1 has an IC50 of 59.3 µM. For CCn1cc(-c2cnccc2C)nc(N2CC[C@@H](CO)C2)c1=O, the IC50 was greater than 99.5 µM. CCN(C)S(=O)(=O)N1CCC([C@H](NC(=O)OCc2ccccc2)C(=O)Nc2cccc(CN)c2)CC1 gave an IC50 greater than 99.5 µM. Work on O=C(Nc1ccc2c(c1)CNC2)N1CCC[C@](O)(c2ccccc2)C1 yielded an IC50 greater than 25 µM. OCc1cc(C2CCN(Cc3c[nH]c4ccccc34)CC2)no1 was tested, and the IC50 was 54.9 µM. In the case of CC(C)NC(=O)[C@H](Nc1ccc2c(c1)CNC2)c1cc(Cl)cc2[nH]ncc12, the IC50 is reported as 0.086 µM and 0.054 µM and 0.124 µM and 0.138 µM and 0.089 µM. c1ccc(-c2c[nH]nc2CN2CCC(c3cscn3)CC2)cc1 gave an IC50 greater than 99.5 µM. O=C(Nc1ccc2c(c1)CNC2)N1CCC[C@H](CC2CCC2)C1 was tested, and the IC50 was greater than 25 µM. In the case of O=C(Nc1cc(Cl)cc(C(=O)NC[C@@]23CN[C@H](CCO2)C3)c1)OCc1ccccc1, the IC50 is reported as greater than 99.5 µM. In the case of O=C(Nc1ccc2c(c1)CNC2)c1ccc(OC(F)(F)F)cc1, the IC50 is reported as greater than 25 µM. For O=C(Nc1cc(-c2cccnc2)ccn1)c1c[nH]c2ncccc12, the IC50 was greater than 25 µM. With O=C(Nc1ccc2c(c1)CNC2)c1ccc(F)c2[nH]ncc12 the IC50 was 2.65 µM. Work on CNC(=O)[C@H](Nc1ccc2c(c1)CNC2)c1cccc2[nH]c(C(F)(F)F)nc12 yielded an IC50 of 3.42 µM. CNC(=O)[C@]1(Nc2ccc3c(c2)CNC3)C(=O)Nc2ccc(Cl)cc21 showed an IC50 greater than 25 µM. Compound O=C(O)Cc1cc2c(c(Cc3c[nH]c4ccc(Cl)cc34)c1)OCC2 has an IC50 greater than 99.5 µM. Cn1cc(NC(=O)c2cc(Cl)cc(NC(=O)OCc3ccccc3)c2)cn1 gave an IC50 greater than 99.5 µM. Compound O=C(Nc1ccc2c(c1)CNC2)c1cc(C(F)(F)F)nc2[nH]ccc12 has an IC50 of 7.32 µM. COc1ccc2c(c1)c(C(=O)Nc1cccc(CN)c1)c(C)n2C1CCCC1 gave an IC50 greater than 99.5 µM. O=C(Nc1cc(Cl)cc(C(=O)NCCCc2nnn[nH]2)c1)OCc1ccccc1 showed an IC50 greater than 99.5 µM. With N#CC1(c2ccccc2)CCN(Cc2c[nH]c3ccccc23)CC1 the IC50 was greater than 99.5 µM. Work on NCc1cccc(NC(=O)c2cc(Br)cnc2OCC2CC2)c1 yielded an IC50 greater than 99.5 µM. In the case of Cn1ncnc1Sc1nc(C2CCCC2)ns1, the IC50 is reported as greater than 99.5 µM. In the case of N[C@H]1CCc2ccc(NC(=O)c3cc(Cl)cc4[nH]ncc34)cc21, the IC50 is reported as 1.49 µM. In the case of CN(C)[C@H](C(=O)Nc1cccc(CN)c1)c1cc(Cl)cc(Cl)c1, the IC50 is reported as greater than 99.5 µM. For CCn1c(=O)c(N2CCC[C@@H]2Cn2cncn2)nc2ccccc21, the IC50 was greater than 99.5 µM. NCc1cccc(NC(=O)c2ccc(F)c(NC(=O)OCc3ccccc3)c2F)c1 showed an IC50 greater than 99.5 µM. Compound CCn1c(=O)c(N2C[C@@H]3CS(=O)(=O)C[C@@H]3C2)nc2ccccc21 has an IC50 greater than 99.5 µM. With CNC(=O)[C@H](Nc1cccc(N)n1)c1cc(Cl)cc(CN)c1 the IC50 was greater than 99.5 µM. N#Cc1c(C(F)F)cccc1N1CCC(n2ncc(N)c2C(F)(F)F)CC1 was tested, and the IC50 was greater than 99.5 µM. In the case of NC[C@]1(F)C[C@@H](NC(=O)c2cc(Cl)cc(NC(=O)OCc3ccccc3)c2)C1, the IC50 is reported as 68.6 µM. Compound NC1(c2ccccc2NS(=O)(=O)c2ccc(Oc3ccccc3Cl)cc2)CC1 has an IC50 greater than 99.5 µM. O=Cc1ccc(N2CCC(C(=O)NCCN3CCc4ccccc43)CC2)cc1 gave an IC50 of 25 µM. Work on c1cncc(N2CCCN(Cc3c[nH]c4ccccc34)CC2)c1 yielded an IC50 greater than 99.5 µM. Cn1nnnc1-c1cccc(NC(=O)c2cc(Cl)cc(NC(=O)OCc3ccccc3)c2)c1 gave an IC50 greater than 99.5 µM. Compound CN1CCn2nc(NC(=O)c3cc(Cl)cc(NC(=O)OCc4ccccc4)c3)cc2C1 has an IC50 greater than 99.5 µM. C#C[C@H](Nc1cccc(-c2nn[nH]n2)c1)c1cc(Cl)cc(NC(=O)OCc2ccccc2)c1 was tested, and the IC50 was 22.9 µM. O=Cc1ccc(N2CCC(C(=O)NCCC3CCN(Cc4ccccc4)CC3)CC2)cc1 gave an IC50 greater than 50.2 µM. Work on N#Cc1ccc(CN)cc1NC(=O)c1cc(Cl)cc(NC(=O)OCc2ccccc2)c1 yielded an IC50 of 18.7 µM. With Cn1ccnc1COc1cccc([C@H](NC(=O)OCc2ccccc2)C(=O)Nc2cccc(CN)c2)c1 the IC50 was greater than 99.5 µM. In the case of CC(C)(CO)NC(=O)[C@@H](NC(=O)OCc1ccccc1)c1ccc(OCc2ccccc2)cc1, the IC50 is reported as greater than 99.5 µM. With COCCCNC(=O)[C@H](Nc1ccc2c(c1)CNC2)c1cc(Cl)cc(C2CC2)c1 the IC50 was 0.088 µM and 0.071 µM. Clc1ccc2[nH]ncc2c1[C@@H]1C[C@H]1c1ccc2c(c1)CNC2 gave an IC50 of 22.4 µM. O=C(Nc1ccc2c(c1)CNC2)c1cc(Cl)cc2nn(C3CCC3)cc12 was tested, and the IC50 was 0.176 µM. For Cn1cc(-c2cccc([C@@H](NC(=O)OCc3ccccc3)C(=O)Nc3cccc(CN)c3)c2)ccc1=O, the IC50 was 73.9 µM. CNC(=O)c1cccc(C(=O)Nc2ccc3c(c2)CNC3)c1 showed an IC50 of 0.87 µM. CC(C)(C)OC(=O)N[C@H](C(=O)Nc1cccc(CN)c1)c1ccc(OCc2ccccc2)cc1 showed an IC50 greater than 99.5 µM. With NCc1cccc(NC(=O)[C@@H](NC(=O)OCc2ccccc2)C2CCN(C(=O)C3CC3)CC2)c1 the IC50 was greater than 99.5 µM. In the case of COCn1ncc2c(C(=O)Nc3ccc4c(c3)CNC4)cc(Cl)cc21, the IC50 is reported as 0.08 µM and 0.054 µM. N[C@H]1CCc2ncc(NS(=O)(=O)c3ccc(Oc4ccccc4Cl)cc3)cc2C1 gave an IC50 greater than 99.5 µM. In the case of O=C(O)CCCc1ccc(NC(=O)c2cc(Cl)cc(NC(=O)OCc3ccccc3)c2)cc1, the IC50 is reported as greater than 99.5 µM. In the case of CCn1cc(C2=CCCNC2)nc(N2CC[C@@H](CO)C2)c1=O, the IC50 is reported as greater than 99.5 µM. N=C(N)NCCc1ccc(NC(=O)Cc2ccccc2)cc1 gave an IC50 greater than 198 µM. O=C(N[C@@H](C(=O)NCc1cn[nH]c1)c1ccc(OCc2ccccc2)cc1)OCc1ccccc1 gave an IC50 greater than 99.5 µM. With O=C(Nc1ccc2c(c1)CNC2)c1cc(Cl)cc2[nH]c(-c3cnc(C4CC4)o3)nc12 the IC50 was 0.05 µM and 0.027 µM. O=C(Nc1cc(Cl)cc(C(=O)Nc2cccc(-c3cn[nH]n3)c2)c1)OCc1ccccc1 showed an IC50 greater than 99.5 µM. CCc1cc(C(=O)Nc2cccc(CN)c2)sc1-c1ccc(Cl)cc1 gave an IC50 of 8.99 µM.
